Data from the supplement of paper PMC5579334.

How the values were obtained:
HSC2 [1] = test: relative IC50 (inflection point of fitted dose-response curve, CellTox-Green cytotoxicity, 72 h; top asymptote may be below 50%); higher = less potent
Summary of the method: (§1)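 MPNST cell lines and primary human Schwann cells were incubated 72 h at 37 °C in 384-well plates holding five 10-fold compound dilutions. CellTox-Green was added before seeding at a final 1:1000 dilution and reported fluorescence from DNA released by disrupted cells. Signals were scaled to vehicle and positive-control wells, and cultures failing plate quality control were dropped. Drug sensitivity score and relative IC50 come from four-parameter logistic fits, with IC50 censored at the top concentration.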

ST8814 [2] = test: as above
Summary of the method: as §1

S1507-2 [3] = test: as above
Summary of the method: as §1

HSC1 [4] = test: as above
Summary of the method: as §1

STS26T [5] = test: as above
Summary of the method: as §1

HS-PSS [6] = test: as above
Summary of the method: as §1

HSC2 [7] = test: relative IC50 (inflection point of fitted dose-response curve, CellTiter-Glo viability, 72 h; top asymptote may be below 50% inhibition); higher = less potent
Summary of the method: (§2)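 MPNST cell lines and primary human Schwann cells (750–1000 cells per well) went into 384-well plates preprinted with each compound at five concentrations in 10-fold steps. Plates were incubated 72 h at 37 °C, 5% CO2. Viability was read as CellTiter-Glo ATP luminescence, scaled between vehicle and positive-control wells, with duplicates averaged where present. Percent inhibition is at the top concentration; drug sensitivity score and relative IC50 (censored at top concentration) come from four-parameter logistic fits.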

ST8814 [8] = test: as above
Summary of the method: as §2

S462 = test: as above
Summary of the method: as §2

HS-Sch-2 = test: as above
Summary of the method: as §2

S1507-2 [9] = test: as above
Summary of the method: as §2

HSC1 [10] = test: as above
Summary of the method: as §2

STS26T [11] = test: as above
Summary of the method: as §2

HS-PSS [12] = test: as above
Summary of the method: as §2

YST-1 = test: as above
Summary of the method: as §2

Row | SMILES | relative IC50 (HSC2 [1]) [nM] | relative IC50 (ST8814 [2]) [nM] | relative IC50 (S1507-2 [3]) [nM] | relative IC50 (HSC1 [4]) [nM] | relative IC50 (STS26T [5]) [nM] | relative IC50 (HS-PSS [6]) [nM] | relative IC50 (HSC2 [7]) [nM] | relative IC50 (ST8814 [8]) [nM] | relative IC50 (S462) [nM] | relative IC50 (HS-Sch-2) [nM] | relative IC50 (S1507-2 [9]) [nM] | relative IC50 (HSC1 [10]) [nM] | relative IC50 (STS26T [11]) [nM] | relative IC50 (HS-PSS [12]) [nM] | relative IC50 (YST-1) [nM]
1 | Nc1cc(C(F)(F)F)c(-c2cc(N3CCOCC3)nc(N3CCOCC3)n2)cn1 [Buparlisib] | 2210 | 2660 | 2960 | 2710 | 1610 | > 10000 | 2020 | 1690 | 1790 | 1610 | 1370 | 1990 | 1530 | 1750 | 844
2 | C#Cc1cccc(Nc2ncnc3cc(OC)c(OCCCCCCC(=O)NO)cc23)c1 [CUDC-101] | 984 | 1270 | 1810 | 1130 | 2500 | 1850 | 545 | 801 | 732 | 438 | 909 | 470 | 1820 | 699 | 159
3 | C=CC(=O)Nc1cc2c(Nc3ccc(F)c(Cl)c3)ncnc2cc1OCCCN1CCOCC1 [Canertinib] | 2000 | 2970 | 2410 | 2160 | 2700 | 2420 | 2030 | 1870 | 2780 | 2530 | 1560 | 1610 | 2220 | 2440 | 3180
4 | CC(C)C[C@H](NC(=O)[C@H](CCc1ccccc1)NC(=O)CN1CCOCC1)C(=O)N[C@@H](Cc1ccccc1)C(=O)N[C@@H](CC(C)C)C(=O)[C@@]1(C)CO1 [Carfilzomib] | 23 | 12 | 25.7 | 24.6 | 8.79 | 25.1 | 9.67 | 8.99 | 4.5 | 2.75 | 17.2 | 11.5 | 8.28 | 11.7 | 4.71
5 | Nc1nc(Cl)nc2c1ncn2[C@@H]1O[C@H](CO)[C@@H](O)[C@@H]1F [Clofarabine] | 337 | 814 | 1940 | 323 | 585 | 311 | 207 | 744 | 374 | 161 | 817 | 289 | 301 | 387 | 331
6 | CCN(CC)CCOc1ccc(/C(=C(/Cl)c2ccccc2)c2ccccc2)cc1 [Clomifene] | 2030 | 2560 | 3540 | > 10000 | 2840 | 2990 | 2440 | 2540 | 2450 | 3360 | 2470 | 1140 | 2520 | 2290 | 3930
